These results are taken from ChEMBL document CHEMBL3045073, “Synthesis of -amino carbonyl derivatives of coumarin and benzofuran and evaluation of their biological activity” (Med Chem Res, 2013).

What is called MIC is the least concentration at which growth counts as inhibited.

Converted amounts (≈) assume the structure as drawn.

Data set [1] deals with Pseudomonas aeruginosa. In words: Antibacterial activity against Pseudomonas aeruginosa ATCC 27853 assessed as growth inhibition at 0.5 to 1 mg/mL after 24 hr by agar well diffusion method. The data set is classed as functional. (In general: Agar diffusion results depend on both activity and mobility in agar.)
The test system of data set [2] is Staphylococcus aureus. In words: Antibacterial activity against Staphylococcus aureus ATCC 25923 assessed as growth inhibition at 0.5 to 1 mg/mL after 24 hr by agar well diffusion method.
For data set [3], the system named is Escherichia coli. Briefly: Antibacterial activity against Escherichia coli ATCC 25922 assessed as growth inhibition at 0.5 to 1 mg/mL after 24 hr by agar well diffusion method.
Data set [4] has as its system Radical scavenging activity. Briefly: Antioxidant activity assessed as DPPH free radical scavenging activity at 100 ug/mL after 10 min UV-Vis spectrophotometric analysis relative to control. The data set is classed as functional. (Loss of DPPH colour is used to gauge radical scavenging.)
The test system of data set [5] is Pseudomonas aeruginosa. In words: Antibacterial activity against Pseudomonas aeruginosa ATCC 27853 assessed as growth inhibition at 50 mg/mL after 24 hr by agar well diffusion method. The data set is classed as functional. Conditions: ATCC 27853, 24 h, read-out: IZ; call rule not given here.
Data set [6] relates to Candida albicans. Briefly: Antifungal activity against Candida albicans MTCC227 assessed as growth inhibition after 72 hr by serial broth dilution method. To be noted: MTCC227, 72 h. For orientation: In broth dilution the organism is exposed to a series of concentrations in liquid medium.
The subject of data set [7] is Pseudomonas aeruginosa. In words: Antibacterial activity against Pseudomonas aeruginosa ATCC 27853 assessed as growth inhibition after 24 hr by serial broth dilution method. Conditions: ATCC 27853, 24 h. Type of data set: functional.
For data set [8], the system named is Escherichia coli. In words: Antibacterial activity against Escherichia coli ATCC 25922 assessed as growth inhibition after 24 hr by serial broth dilution method. Conditions: ATCC 25922, 24 h.
Data set [9] concerns Candida albicans. Briefly: Antifungal activity against Candida albicans MTCC227 assessed as growth inhibition at 50 mg/mL after 72 hr by agar well diffusion method. To be noted: MTCC227, 72 h, read-out: IZ.
For data set [10], the system named is Chrysosporium keratinophilum. In words: Antifungal activity against Chrysosporium keratinophilum assessed as growth inhibition after 72 hr by serial broth dilution method. The data set is classed as functional.
Data set [11] has as its system Aspergillus flavus. Briefly: Antifungal activity against Aspergillus flavus assessed as growth inhibition after 72 hr by serial broth dilution method. Type of data set: functional.
In data set [12] the test system is Aspergillus flavus. Briefly: Antifungal activity against Aspergillus flavus assessed as growth inhibition at 50 mg/mL after 72 hr by agar well diffusion method. Type of data set: functional. To be noted: read-out: IZ.
The subject of data set [13] is Staphylococcus aureus. Briefly: Antibacterial activity against Staphylococcus aureus ATCC 25923 assessed as growth inhibition after 24 hr by serial broth dilution method. Conditions: ATCC 25923, 24 h.
Data set [14] has as its system Escherichia coli. In words: Antibacterial activity against Escherichia coli ATCC 25922 assessed as growth inhibition at 50 mg/mL after 24 hr by agar well diffusion method. To be noted: ATCC 25922, 24 h, read-out: IZ.
A short description of data set [15]: Metal chelating activity of the compound assessed as ferrous ion complex formation at 0.5 to 2 mg/mL after 10 min by spectrophotometric analysis.
In data set [16] the test system is Staphylococcus aureus. Briefly: Antibacterial activity against Staphylococcus aureus ATCC 25923 assessed as growth inhibition at 50 mg/mL after 24 hr by agar well diffusion method. Conditions: ATCC 25923, 24 h, read-out: IZ.
The subject of data set [17] is Chrysosporium keratinophilum. Briefly: Antifungal activity against Chrysosporium keratinophilum assessed as growth inhibition at 50 mg/mL after 72 hr by agar well diffusion method. Type of data set: functional. To be noted: read-out: IZ.
The subject of data set [18] is Chrysosporium keratinophilum. In words: Antifungal activity against Chrysosporium keratinophilum assessed as growth inhibition at 0.5 to 1 mg/mL after 72 hr by agar well diffusion method. Type of data set: functional.
Data set [19] relates to Candida albicans. In words: Antifungal activity against Candida albicans NCPF 3179 assessed as growth inhibition at 0.5 to 1 mg/mL after 72 hr by agar well diffusion method. Type of data set: functional.
For data set [20], the system named is Aspergillus flavus. In words: Antifungal activity against Aspergillus flavus assessed as growth inhibition at 0.5 to 1 mg/mL after 72 hr by agar well diffusion method. Type of data set: functional.
Data set [21] is described as follows: Metal chelating activity of the compound assessed as ferrous ion complex formation at 0.5 to 2 mg/mL after 10 min by spectrophotometric analysis relative to EDTA.

On to `CN[C@@H]1[C@H](O[C@H]2[C@H](O[C@H]3[C@H](O)[C@@H](O)[C@H](N=C(N)N)[C@@H](O)[C@@H]3N=C(N)N)O[C@@H](C)[C@]2(O)C=O)O[C@@H](CO)[C@H](O)[C@H]1O` [STREPTOMYCIN], for which the “inhibition zone (IZ)” value with Pseudomonas aeruginosa [1] was 13 mm; in the data set with Staphylococcus aureus [2], 12 mm; in the data set with Escherichia coli [3], 14 mm. Also, the minimal inhibitory concentration (MIC) in the data set on Pseudomonas aeruginosa [1] (Pseudomonas aeruginosa, ATCC 27853, 24 h) came out at 30 µg/mL (≈ 51.6 µM); in the data set with Staphylococcus aureus [2] (Staphylococcus aureus, ATCC 25923, 24 h), 30 µg/mL (≈ 51.6 µM); in the data set on Escherichia coli [3] (Escherichia coli, ATCC 25922, 24 h) it was 30 µg/mL (≈ 51.6 µM).

For `O=C(O)c1ccc(NC(CC(=O)c2cc3ccccc3oc2=O)c2ccccc2)cc1` (stereo not drawn), the Activity stood at 64.6% in [4] and 64.3% in [15]. In addition, the zone of inhibition at 50000 µg/mL is 12 mm in the data set on Pseudomonas aeruginosa [5]; 17 mm in the data set on Candida albicans [9]; 11 mm in the data set on Aspergillus flavus [12]; 10 mm in the data set on Escherichia coli [14]; 11 mm with Staphylococcus aureus [16]; 13 mm in data set [17]. Also, the MIC with Candida albicans [6] was determined as 150 µg/mL (≈ 363 µM); in the data set on Pseudomonas aeruginosa [7], 150 µg/mL (≈ 363 µM); in the data set with Escherichia coli [8] it was 50 µg/mL (≈ 121 µM); in data set [10] it was 200 µg/mL (≈ 484 µM); in the data set with Aspergillus flavus [11], 250 µg/mL (≈ 605 µM); in the data set on Staphylococcus aureus [13], 100 µg/mL (≈ 242 µM).

On to `OC(Cn1cncn1)(Cn1cncn1)c1ccc(F)cc1F` [FLUCONAZOLE], for which the “inhibition zone (IZ)” value in data set [18] was determined as 14 mm; in the data set with Candida albicans [19], 20 mm; with Aspergillus flavus [20], 10 mm. For the same molecule, the MIC in [18] (Chrysosporium keratinophilum, 72 h) amounted to 40 µg/mL (≈ 131 µM); in the data set with Candida albicans [19] (Candida albicans, NCPF 3179, 72 h), 40 µg/mL (≈ 131 µM); with Aspergillus flavus [20] (Aspergillus flavus, 72 h), 40 µg/mL (≈ 131 µM).

Turning to `O=C(O)c1ccc(NC(CC(=O)c2cc3ccccc3o2)c2ccccc2)cc1` (stereo not drawn), the Activity in data set [4] is 52.2%; in [15], 69.6%. The zone of inhibition at 50000 µg/mL with Pseudomonas aeruginosa [5] came to 3 mm; in the data set on Candida albicans [9], 2 mm; in the data set on Aspergillus flavus [12], 3 mm; in the data set with Escherichia coli [14], 3 mm; in the data set with Staphylococcus aureus [16], 3 mm; in data set [17] it was 2 mm. For the same molecule, the MIC in the data set on Candida albicans [6] stood at 400 µg/mL (≈ 1040 µM); in the data set on Pseudomonas aeruginosa [7], 500 µg/mL (≈ 1300 µM); in the data set on Escherichia coli [8], 500 µg/mL (≈ 1300 µM); in data set [10], 500 µg/mL (≈ 1300 µM); in the data set on Aspergillus flavus [11] it was 500 µg/mL (≈ 1300 µM); with Staphylococcus aureus [13] it was 450 µg/mL (≈ 1170 µM).

For the molecule `CN(C)c1ccc(C(CC(=O)c2cc3ccccc3o2)Nc2ccc(C(=O)O)cc2)cc1` (stereo not drawn), the Activity in [4] was 67.2%; in data set [21] it was “Active”. Moreover, the zone of inhibition at 50000 µg/mL with Pseudomonas aeruginosa [5] was 10 mm; in the data set on Candida albicans [9] it was 19 mm; in the data set with Aspergillus flavus [12], 10 mm; with Escherichia coli [14] it was 13 mm; in the data set with Staphylococcus aureus [16], 11 mm; in data set [17], 12 mm. For the same molecule, the minimum inhibitory concentration (MIC) was determined as 50 µg/mL (≈ 117 µM) in the data set with Candida albicans [6]; 40 µg/mL (≈ 93.4 µM) with Pseudomonas aeruginosa [7]; 50 µg/mL (≈ 117 µM) in the data set on Escherichia coli [8]; 40 µg/mL (≈ 93.4 µM) in [10]; 40 µg/mL (≈ 93.4 µM) in the data set with Aspergillus flavus [11]; 60 µg/mL (≈ 140 µM) in the data set on Staphylococcus aureus [13].

In the case of `O=C(O)c1ccc(NC(CC(=O)c2cc3ccccc3o2)c2ccc(F)cc2)cc1` (stereo not drawn), the Activity in data set [4] was 36.2%; in [21], “Active”. Also, the zone of inhibition at 50000 µg/mL in the data set with Pseudomonas aeruginosa [5] stood at 9 mm; with Candida albicans [9], 18 mm; in the data set with Aspergillus flavus [12], 9 mm; with Escherichia coli [14], 5 mm; in the data set on Staphylococcus aureus [16], 6 mm; in data set [17] it was 12 mm. Also, the MIC with Candida albicans [6] was found to be 100 µg/mL (≈ 248 µM); in the data set with Pseudomonas aeruginosa [7], 140 µg/mL (≈ 347 µM); in the data set on Escherichia coli [8], 300 µg/mL (≈ 744 µM); in data set [10], 150 µg/mL (≈ 372 µM); with Aspergillus flavus [11], 130 µg/mL (≈ 322 µM); with Staphylococcus aureus [13], 140 µg/mL (≈ 347 µM).
